Experimental data reported in patent US20150004110A1, “NOVEL ANTI-AGING AND DEPIGMENTING COSMETIC COMPOSITIONS” (DIVERCHIM, priority 2011, published 2015).
Read-outs that look alike come from different tables or passages of the source.

How the values were obtained:
B16 melanocytes = experiment: Cell viability, MTT reduction test; assay type: cell-based; conditions: B16, 72 h, Table 2
Description: The melanocytes were seeded in a 96-well plate and were cultured for 24 h (37° C., 5% CO2, DMEM 1 g/L glucose without phenol red supplemented with glucose at 3 g/L, L-glutamine at 2 mM, penicillin at 50 U/mL, streptomycin at 50 μg/mL, foetal calf serum (FCS) at 10%). After incubation, the culture medium was then replaced with culture medium supplemented or not supplemented (unstimulated control) with a stable derivative of α-MSH and containing or not containing (controls) the test compounds or the reference (kojic acid at 25, 100, 400, 800 μg/mL). Each experiment was carried out with n=3, apart from the controls carried out with n=6, then the cells were incubated for 72 h. Wells without cells received in parallel the same quantities of medium supplemented or not supplemented with NDP-MSH and containing or not containing the test compounds or the reference in order to quantify the background noise associated with the presence of the compounds. At the end of the treatment, the cells were incubated in the presence of MTT (tetrazolium salt), the transformation of which to blue crystals of formazan is proportional to the activity of succinate dehydrogenase (mitochondrial enzyme). After dissociation of the cells, the formazan was dissolved in DMSO medium and the optical density (OD), representative of the number of living cells and of their metabolic reactivity, was measured with a microplate reader at 540 nm (VERSAmax, Molecular Devices). The operating conditions are the same as in Example 12.

[1] = system: B16 melanocytes stimulated with NDP-MSH; experiment: Anti-melanogenesis activity: melanin synthesis in B16 melanocytes stimulated with NDP-MSH; assay type: cell-based; conditions: for inhibition at 30 µM / inhibition at 100 µM / inhibition at 3 µM / inhibition at 10 µM: Melanocyte, read-out: Standardized data Inhibition (%) (melanin)
Description: The depigmenting effect was evaluated on a line of type B16 melanocytes stimulated with NDP-MSH, (natural hormone stimulating melanogenesis; Melanocyte Stimulating Hormone, [Nle, DPhe]-α-MSH). Melanin synthesis was evaluated.
The anti-melanogenesis activity of the compounds in solution in DMSO was evaluated by measuring melanin synthesis in a model of B16 melanocytes stimulated with a stable derivative of α-MSH (natural melanogenesis stimulating hormone): NDP-MSH.
The melanocytes were seeded in a 96-well plate and were cultured for 24 h (37° C., 5% CO2, DMEM 1 g/L glucose without phenol red supplemented with glucose at 3 g/L, L-glutamine at 2 mM, penicillin at 50 U/mL, streptomycin at 50 μg/mL, foetal calf serum (FCS) at 10%). After incubation, the culture medium was then replaced with culture medium supplemented or not supplemented (unstimulated control) with a stable derivative of α-MSH and containing or not containing (controls) the test compounds or the reference (kojic acid at 25, 100, 400, 800 μg/mL). Each experiment was carried out with n=3, apart from the controls carried out with n=6, then the cells were incubated for 72 h. Wells without cells received in parallel the same quantities of medium supplemented or not supplemented with NDP-MSH and containing or not containing the test compounds or the reference in order to quantify the background noise associated with the presence of the compounds.
After incubation for 72 hours, the total melanin (intra- and extracellular) was quantified by measuring the absorption at 405 nm of each sample (direct reading of the culture plates) against a standard range of melanin (melanin concentrations tested from 0.78 to 100 μg/mL). The background noise, measured in the wells without cells, was subtracted from the measured values so as only to take into account the effect connected with melanin production, without taking into account the possible interference connected with the presence of the compounds. The results were expressed as percentage of melanin relative to the control as well as percentage inhibition.
The operating conditions are the same as in Example 12.

[2] = 30 μM, NDP-MSH stimulated B16, 72 h, Table 2
[3] = 100 μM, NDP-MSH stimulated B16, 72 h, Table 2
[4] = NDP-MSH stimulated B16, 72 h, Table 2

SMILES	Viability (MTT) % stimulated control (B16 melanocytes; 30 μM) [%]	Viability (MTT) % stimulated control (B16 melanocytes; 100 μM) [%]	inhibition at 30 µM [1, 2] [%]	inhibition at 100 µM [1, 3] [%]	also measured
Cc1ccc(OCCc2ccccc2O)cc1 [Compound 2]	108	34	100	112	
Oc1ccccc1CCOc1ccc(Br)cc1 [Compound 3]	96	0	110	112	
COc1ccc(OCCc2ccccc2O)cc1 [Compound 4]	97	54			Standardized data Inhibition (%) (melanin) [1, 2]: 95%; Standardized data Inhibition (%) (melanin) [1, 3]: 111%
Oc1ccccc1CCOc1ccccc1 [Compound 5]	103	67			Standardized data Inhibition (%) (melanin) [1, 2]: 49%; Standardized data Inhibition (%) (melanin) [1, 3]: 111%
Fc1ccc(OCCc2ccccc2Br)cc1 [Compound 8]	94	93			Standardized data Inhibition (%) (melanin) [1, 2]: −27%; Standardized data Inhibition (%) (melanin) [1, 3]: 50%
Fc1ccc(OCCc2ccccc2C(F)(F)F)cc1 [Compound 10]	87	91	-11	27	
Cc1cccc(CCOc2ccc(F)cc2)c1 [Compound 11]	83	109	-2	44	
COc1ccc(OCCc2ccccc2OC)cc1 [Compound 14]	89	80	-22	100	
COc1ccccc1CCOc1ccc(F)cc1 [Compound 16]	87	83	-33	52	
COc1ccccc1C1(COc2ccc(F)cc2)CC1 [Compound 18]	80	75	-21	105	
O=[N+]([O-])c1ccc(OCCc2ccccc2O)cc1 [Compound 19]	91	0	82	111	
Oc1ccccc1CCOc1ccc(OCc2ccccc2)cc1 [Compound 20]	59		115		Viability (MTT) % stimulated control (B16 melanocytes; 3 μM): 106%; Viability (MTT) % stimulated control (B16 melanocytes; 10 μM): 84%; inhibition at 3 µM [1, 4]: 83%; inhibition at 10 µM [1, 4]: 108%
CC(=O)Nc1ccc(OCCc2ccccc2OC(C)=O)cc1 [Compound 22]	97	86	-3	61	
Oc1ccccc1C(O)COc1ccc(F)cc1 (stereo not drawn) [Compound 24]	76	78	-12	84	
Fc1ccc(CCOc2ccccc2OCc2ccccc2)cc1 [Compound 25]	93		46		
Oc1ccc(OCCc2ccccc2F)cc1 [Compound 27]	77		95		
CC(=O)OC[C@H]1OC(Oc2ccccc2CCOc2ccc(F)cc2)[C@H](OC(C)=O)[C@@H](OC(C)=O)[C@@H]1OC(C)=O (stereo partly drawn) [Compound 30]	88		13		
Oc1ccccc1CCOc1ccc(Cl)cc1 [Compound 31]	88		109		Viability (MTT) % stimulated control (B16 melanocytes; 3 μM): 91%; Viability (MTT) % stimulated control (B16 melanocytes; 10 μM): 104%; inhibition at 3 µM [1, 4]: 20%; inhibition at 10 µM [1, 4]: 70%
CCc1ccc(OCCc2ccccc2O)cc1 [Compound 35]	88		112		Viability (MTT) % stimulated control (B16 melanocytes; 3 μM): 105%; Viability (MTT) % stimulated control (B16 melanocytes; 10 μM): 97%; inhibition at 3 µM [1, 4]: 54%; inhibition at 10 µM [1, 4]: 92%
CC(C)c1ccc(OCCc2ccccc2O)cc1 [Compound 39]	86		119		Viability (MTT) % stimulated control (B16 melanocytes; 3 μM): 119%; Viability (MTT) % stimulated control (B16 melanocytes; 10 μM): 101%; inhibition at 3 µM [1, 4]: 70%; inhibition at 10 µM [1, 4]: 111%
CC(C)c1ccc(OCC(=O)c2ccccc2O)cc1 [Compound 40]	90		58		Viability (MTT) % stimulated control (B16 melanocytes; 10 μM): 102%; inhibition at 10 µM [1, 4]: 5%
CCC(C)(C)c1ccc(OCCc2ccccc2O)cc1 [Compound 43]	9		120		Viability (MTT) % stimulated control (B16 melanocytes; 3 μM): 116%; Viability (MTT) % stimulated control (B16 melanocytes; 10 μM): 90%; inhibition at 3 µM [1, 4]: 88%; inhibition at 10 µM [1, 4]: 119%
CCC(C)(C)c1ccc(OCC(=O)c2ccccc2O)cc1 [Compound 44]	80		117		Viability (MTT) % stimulated control (B16 melanocytes; 10 μM): 89%; inhibition at 10 µM [1, 4]: 24%
CC(C)(C)c1ccc(OCCc2ccccc2O)cc1 [Compound 47]	18		116		Viability (MTT) % stimulated control (B16 melanocytes; 3 μM): 116%; Viability (MTT) % stimulated control (B16 melanocytes; 10 μM): 89%; inhibition at 3 µM [1, 4]: 75%; inhibition at 10 µM [1, 4]: 111%
CCOc1ccc(OCC(O)c2ccccc2O)cc1 (stereo not drawn) [Compound 57]	97		47		
COc1ccccc1OCC(O)c1ccccc1O (stereo not drawn) [Compound 125]	90		13		
CCCCc1ccc(O)cc1O [Ref 1, 4-(2,4-dihydroxyphenyl)butane, reference compound]					inhibition at 30 µM ([1]; 30 μM, comparison with 2 reference molecules, Table 3): 82%; inhibition at 100 µM ([1]; 100 μM, comparison with 2 reference molecules, Table 3): 100%
